From BindingDB's records for doi:10.1021/jm960541s (Upjohn, 1996)

Experiments:
[1] = target: T1, Dimer of Gag-Pol polyprotein [489-587] (Human immunodeficiency virus 1, UniProt P04585); assay: Protease Inhibition Assay; conditions: pH 5; 22 °C
T1 construct: 489-587
Source text: (§1) HIV-1 protease was purified and refolded from E. coli inclusion bodies. The substrate used spans the p17-p24 processing site (R-V-S-Q-N-Y-P-I-V-Q-N-K) and was derivatized with biotin and fluorescein isothiocyanate (FITC) at the amino and carboxy termini. In the presence of HIV-l protease, the substrate is rapidly cleaved into two parts. The biotinylated amino terminal fragment binds to the avidin beads while the FITC-containing carboxy1 terminal fragment is removed through the membrane. […] The bound fluorescence is obtained by processing on an IDEXX Screen Machine. Determination of Ki values with this assay requires analysis under conditions in which substrate concentration resides substantially below Km and the inhibitor concentrations greatly exceeds the Ki value and the enzyme concentration.

[2] = target: T2, Dimer of Gag-Pol polyprotein [489-587] (Human immunodeficiency virus 1, UniProt P12497); assay: Protease Inhibition Assay; conditions: pH 5; 22 °C
T2 construct: 489-587
Source text: as §1

| SMILES | Ki [1] | Ki [2] |
| --- | --- | --- |
| CCC[C@@]1(CCc2ccccc2)CC(=O)C([C@H](CC)c2cccc(NS(=O)(=O)c3ccc(C#N)cn3)c2)C(=O)O1 (stereo partly drawn) [5-cyano-N-{3-[(1R)-1-[(6R)-4-hydroxy-2-oxo-6-(2-phenylethyl)-6-propyl-5,6-dihydro-2H-pyran-3-yl]propyl]phenyl}pyridine-2-sulfonamide] | 0.007 nM |  |
| CCC[C@@]1(CCc2ccccc2)CC(=O)C([C@H](CC)c2cccc(NS(=O)(=O)c3cn(C)cn3)c2)C(=O)O1 (stereo partly drawn) [N-{3-[(1R)-1-[(6R)-4-hydroxy-2-oxo-6-(2-phenylethyl)-6-propyl-5,6-dihydro-2H-pyran-3-yl]propyl]phenyl}-1-methyl-1H-imidazole-4-sulfonamide] | 0.06 nM |  |
| CCC[C@@]1(CCc2ccccc2)CC(=O)C([C@H](CC)c2cccc(NS(=O)(=O)c3ccc(C(F)(F)F)cn3)c2)C(=O)O1 (stereo partly drawn) [N-{3-[(1R)-1-[(6R)-4-hydroxy-2-oxo-6-(2-phenylethyl)-6-propyl-5,6-dihydro-2H-pyran-3-yl]propyl]phenyl}-5-(trifluoromethyl)pyridine-2-sulfonamide] | 0.008 nM |  |
| CCC[C@]1(CCc2ccccc2)CC(=O)C([C@@H](CC)c2cccc(NS(=O)(=O)c3cn(C)cn3)c2)C(=O)O1 (stereo partly drawn) [N-{3-[(1S)-1-[(6S)-4-hydroxy-2-oxo-6-(2-phenylethyl)-6-propyl-5,6-dihydro-2H-pyran-3-yl]propyl]phenyl}-1-methyl-1H-imidazole-4-sulfonamide] | 1 nM |  |
| CCC[C@]1(CCc2ccccc2)CC(=O)C([C@H](CC)c2cccc(NS(=O)(=O)c3cn(C)cn3)c2)C(=O)O1 (stereo partly drawn) [N-{3-[(1R)-1-[(6S)-4-hydroxy-2-oxo-6-(2-phenylethyl)-6-propyl-5,6-dihydro-2H-pyran-3-yl]propyl]phenyl}-1-methyl-1H-imidazole-4-sulfonamide] | 0.12 nM |  |
| CCC[C@@]1(CCc2ccccc2)CC(=O)C([C@@H](CC)c2cccc(NS(=O)(=O)c3ccc(C#N)cn3)c2)C(=O)O1 (stereo partly drawn) [5-cyano-N-{3-[(1S)-1-[(6R)-4-hydroxy-2-oxo-6-(2-phenylethyl)-6-propyl-5,6-dihydro-2H-pyran-3-yl]propyl]phenyl}pyridine-2-sulfonamide] | 0.1 nM |  |
| CCCC1(CCc2ccccc2)CC(=O)C(C(CC)c2cccc(NS(=O)(=O)c3cccc4cccnc34)c2)C(=O)O1 (configuration not stated) [N-(3-{1-[4-hydroxy-2-oxo-6-(2-phenylethyl)-6-propyl-5,6-dihydro-2H-pyran-3-yl]propyl}phenyl)quinoline-8-sulfonamide] |  | 3 nM |
| CCC[C@@]1(CCc2ccccc2)CC(=O)C([C@@H](CC)c2cccc(NS(=O)(=O)c3ccc(C(F)(F)F)cn3)c2)C(=O)O1 (stereo partly drawn) [N-{3-[(1S)-1-[(6R)-4-hydroxy-2-oxo-6-(2-phenylethyl)-6-propyl-5,6-dihydro-2H-pyran-3-yl]propyl]phenyl}-5-(trifluoromethyl)pyridine-2-sulfonamide] | 0.032 nM |  |
| CCCC1(CCc2ccccc2)CC(=O)C(C(CC)c2cccc(NS(=O)(=O)c3ccccc3)c2)C(=O)O1 (configuration not stated) [N-(3-{1-[4-hydroxy-2-oxo-6-(2-phenylethyl)-6-propyl-5,6-dihydro-2H-pyran-3-yl]propyl}phenyl)benzenesulfonamide] |  | 17 nM |
| CCC[C@@]1(CCc2ccccc2)CC(=O)C([C@@H](CC)c2cccc(NS(=O)(=O)c3cn(C)cn3)c2)C(=O)O1 (stereo partly drawn) [N-{3-[(1S)-1-[(6R)-4-hydroxy-2-oxo-6-(2-phenylethyl)-6-propyl-5,6-dihydro-2H-pyran-3-yl]propyl]phenyl}-1-methyl-1H-imidazole-4-sulfonamide] | 0.3 nM |  |
| CCCC1(CCc2ccccc2)CC(=O)C(C(CC)c2cccc(NS(=O)(=O)c3cn(C)cn3)c2)C(=O)O1 (configuration not stated) [N-(3-{1-[4-hydroxy-2-oxo-6-(2-phenylethyl)-6-propyl-5,6-dihydro-2H-pyran-3-yl]propyl}phenyl)-1-methyl-1H-imidazole-4-sulfonamide] |  | 1 nM |
| CCC[C@]1(CCc2ccccc2)CC(=O)C([C@@H](CC)c2cccc(NS(=O)(=O)c3ccc(C(F)(F)F)cn3)c2)C(=O)O1 (stereo partly drawn) [N-{3-[(1S)-1-[(6S)-4-hydroxy-2-oxo-6-(2-phenylethyl)-6-propyl-5,6-dihydro-2H-pyran-3-yl]propyl]phenyl}-5-(trifluoromethyl)pyridine-2-sulfonamide] | 0.22 nM |  |
| CCCC1(CCc2ccccc2)CC(=O)C(C(CC)c2cccc(NS(=O)(=O)c3ccc(C#N)cc3)c2)C(=O)O1 (configuration not stated) [4-cyano-N-(3-{1-[4-hydroxy-2-oxo-6-(2-phenylethyl)-6-propyl-5,6-dihydro-2H-pyran-3-yl]propyl}phenyl)benzene-1-sulfonamide] |  | 8 nM |
| CCC[C@]1(CCc2ccccc2)CC(=O)C([C@H](CC)c2cccc(NS(=O)(=O)c3ccc(C#N)cn3)c2)C(=O)O1 (stereo partly drawn) [5-cyano-N-{3-[(1R)-1-[(6S)-4-hydroxy-2-oxo-6-(2-phenylethyl)-6-propyl-5,6-dihydro-2H-pyran-3-yl]propyl]phenyl}pyridine-2-sulfonamide] | 0.04 nM |  |
| CCC[C@]1(CCc2ccccc2)CC(=O)C([C@@H](CC)c2cccc(NS(=O)(=O)c3ccc(C#N)cn3)c2)C(=O)O1 (stereo partly drawn) [5-cyano-N-{3-[(1S)-1-[(6S)-4-hydroxy-2-oxo-6-(2-phenylethyl)-6-propyl-5,6-dihydro-2H-pyran-3-yl]propyl]phenyl}pyridine-2-sulfonamide] | 0.12 nM |  |
| CCC[C@]1(CCc2ccccc2)CC(=O)C([C@H](CC)c2cccc(NS(=O)(=O)c3ccc(C(F)(F)F)cn3)c2)C(=O)O1 (stereo partly drawn) [N-{3-[(1R)-1-[(6S)-4-hydroxy-2-oxo-6-(2-phenylethyl)-6-propyl-5,6-dihydro-2H-pyran-3-yl]propyl]phenyl}-5-(trifluoromethyl)pyridine-2-sulfonamide] | 0.018 nM |  |
| CCCC1(CCc2ccccc2)CC(=O)C(C(CC)c2cccc(NS(=O)(=O)c3ccc(F)cc3)c2)C(=O)O1 (configuration not stated) [4-fluoro-N-(3-{1-[4-hydroxy-2-oxo-6-(2-phenylethyl)-6-propyl-5,6-dihydro-2H-pyran-3-yl]propyl}phenyl)benzene-1-sulfonamide] |  | 6 nM |
